Reference: US6682920B1, “Compositions and methods for identifying PKB kinase inhibitors” (Onyx Pharmaceuticals, Inc., priority 1997, dated 2004)
“Also recorded” adds a separate entry of the source.

What was measured:
[1] = target: (EE)-PKB, EE-tagged protein kinase B purified from SF9 cells (UniProt P31749)
PKB kinases [2] = test: Association of PKB kinases with sucrose-loaded lipid vesicles containing inositol phospholipids; assay type: binding, sheep
Protocol: To assay association of PKB and PKB kinases with lipid vesicles and the effects of different lipids on the phosphorylation of PKB, the lipid vesicles were prepared by: sonicating dry lipid films into 0.2 M sucose; 20 mM KCl; 20 mM HEPES, pH 7.4 30° C.; 0.01% azide (to give 200 μM phosphatidylcholine, 150 μM phosphatidylserine, 20 μM phosphatidylethanolamine, 10 μM spingomylin plus the indicated concentrations of inositol lipids final in the assay. These were mixed with the relevant kinases in an assay buffer containing 1 mgml^−1 BSA; 0.12 M NaCl; 1 mM EGTA; 0.2 mM calcium; 1.5 mM MgCl2; 1 mM DTT; 0.01% azide; 5 mM KCl; 20 mM HEPES, pH 7.4, 30° C. (approx. 50 nM free calcium, all final concentrations in assay) with or without [γ^32P]-ATP (1 μM final concentration) and (EE)-PKB (2.5 μM final concentration). If the assays were to estimate associated of the kinases with the lipid vesicles then after 4 mins at 30° C. the assays were centrifuged (airfuge (Beckman) maximum speed for 30 mins). Aliquots of the supernatents were removed for assays or immunoblotting. […] Phosphorylation of PKB(s) were quantitated as described above. […]
Under the same assay conditions used for the PKB phosphorylation studies, we investigated the association of both the PKB kinases and PKB itself (FIG. 2C) with the lipid vesicles in these assays. […] Phosphorylation of PKB(s) was quantitated as described herein.

PKB kinases A-D = test: PtdIns lipid-dependent phosphorylation and activation of PKB by purified PKB kinases (lipid vesicle assay); assay type: biochemical, sheep; details: mixed lipid vesicles, (EE)-PKB 2.5 μM, [γ32P]-ATP; FIG. 2A/2B
Protocol: Assays were run in 2 stages. The first stage was run with mixed lipid vesicles either with or without D-D-S/A-PtdIns(3,4,5)P3 (final concentration 5 μM) and in the presence or absence of PKB kinase A (6 nM), wild-type (EE)-PKB (2.5 μM) or T308A/S473A-(EE)-PKB) and [γ^32P]-ATP (50 μM). The assays were stopped and PKB proteins were immunoprecipitated with α(EE)-beads, washed then incubated with [γ^32P]-ATP (10 μM) and myelin basic protein (MBP; 7 μM) to determine the activity of the immobilized PKB. The results are from a single experiment and are represented as means±SE(n=3-5); four further experiments gave similar results. PKB kinases B, C and D gave very similar results.
Assays contained; a constant concentration of mixed lipid vesicles containing the indicated concentrations of inositol phospholipids, (EE)-PKB (2.5 μM), PKB kinase A (5 nM) and [γ^32P]-ATP (1 μM, total volume 12 μl). The data shown are pooled from 12 separate experiments and are means (n=3-6, their average se was 6%).
To assay association of PKB and PKB kinases with lipid vesicles and the effects of different lipids on the phosphorylation of PKB, the lipid vesicles were prepared by: sonicating dry lipid films into 0.2 M sucose; 20 mM KCl; 20 mM HEPES, pH 7.4 30° C.; 0.01% azide (to give 200 μM phosphatidylcholine, 150 μM phosphatidylserine, 20 μM phosphatidylethanolamine, 10 μM spingomylin plus the indicated concentrations of inositol lipids final in the assay. These were mixed with the relevant kinases in an assay buffer containing 1 mgml^−1 BSA; 0.12 M NaCl; 1 mM EGTA; 0.2 mM calcium; 1.5 mM MgCl2; 1 mM DTT; 0.01% azide; 5 mM KCl; 20 mM HEPES, pH 7.4, 30° C. (approx. 50 nM free calcium, all final concentrations in assay) with or without [γ^32P]-ATP (1 μM final concentration) and (EE)-PKB (2.5 μM final concentration). If the assays were to estimate associated of the kinases with the lipid vesicles then after 4 mins at 30° C. the assays were centrifuged (airfuge (Beckman) maximum speed for 30 mins). Aliquots of the supernatents were removed for assays or immunoblotting. The pellets were rinsed rapidly with assay buffer, recentrifuged and dissolved in SDS-sample buffer. Phosphorylation of PKB(s) were quantitated as described above. […]

PKB kinases [3] = test: Phosphorylation of a water-soluble 30-mer peptide based on the PKB sequence around Thr308 by PKB kinases; assay type: biochemical, sheep; details: not shown
[4] = target: (EE)-PKB, EE-tagged protein kinase B purified from SF9 cells, P31749
(EE)-PKB, EE-tagged protein kinase B purified from SF9 cells, P31749, sequence (P31749 whole entry, looked up): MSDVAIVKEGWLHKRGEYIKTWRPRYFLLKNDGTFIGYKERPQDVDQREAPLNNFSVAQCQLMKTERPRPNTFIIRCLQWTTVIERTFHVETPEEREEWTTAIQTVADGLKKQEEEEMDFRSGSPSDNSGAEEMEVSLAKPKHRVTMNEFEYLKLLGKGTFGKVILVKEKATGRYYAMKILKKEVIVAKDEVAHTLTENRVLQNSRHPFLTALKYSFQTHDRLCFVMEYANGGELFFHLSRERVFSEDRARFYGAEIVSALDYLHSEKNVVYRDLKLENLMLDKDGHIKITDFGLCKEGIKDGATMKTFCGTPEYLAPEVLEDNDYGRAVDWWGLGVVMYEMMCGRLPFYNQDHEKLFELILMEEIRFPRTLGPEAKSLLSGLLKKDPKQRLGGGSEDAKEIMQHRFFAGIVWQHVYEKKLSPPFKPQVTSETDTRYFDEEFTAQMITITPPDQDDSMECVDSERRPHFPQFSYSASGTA

Molecule: PKB kinase A purified from sheep brain cytosol
- phosphorylation and activation of PKB (activation judged by myelin basic protein phosphorylation) [1]: All four activities phosphorylate and activate (as judged by mylein basic protein (MBP) phosphorylation) PKB in the presence of the biological stereoisomers of PtdIns(3,4,5)P3 or PtdIns(3,4)P2

Molecule: CCCCC/C=C\C/C=C\C/C=C\C/C=C\CCCC(=O)OC(COC(=O)CCCCCCCCCCCCCCCCC)COP(=O)(O)OC1C(O)C(OP(=O)(O)O)C(OP(=O)(O)O)C(OP(=O)(O)O)C1O [D-D-S/A-PtdIns(3,4,5)P3, (1-stearoyl, 2-arachidonyl) snphosphatidyl D-myo-inositol (3,4,5)-trisphosphate]
- molar percentage of the lipid in vesicles at which PKB kinases associated (PKB kinases [2]; very low molar percentages): 0.003%
- PKB kinase phosphorylation/activation of PKB in the presence of the lipid (PKB kinases A-D): phosphorylate and activate; also recorded: equally effectively activated

Molecule: phosphatidylinositol-3,4,5-triphosphate [PtdIns(3,4,5)P3]
- effect of the lipid on phosphorylation of 30-mer PKB Thr308 peptide (PKB kinases [3]): dramatically inhibited

Molecule: CCCCCCCCCCCCCCCC(=O)OC[C@H](COP(=O)(O)O[C@H]1[C@H](O)[C@@H](O)[C@H](OP(=O)(O)O)[C@@H](OP(=O)(O)O)[C@H]1O)OC(=O)CCCCCCCCCCCCCCC [D-D-P/P-PtdIns(3,4)P2]
- association of PKB kinases with lipid vesicles containing the lipid (PKB kinases [2]; 4 mins at 30° C., vesicles pelleted by centrifugation): associated with the lipid vesicles

Molecule: CCCCC/C=C\C/C=C\C/C=C\C/C=C\CCCC(=O)OC(COC(=O)CCCCCCCCCCCCCCCCC)COP(=O)(O)OC1C(O)C(OP(=O)(O)O)C(OP(=O)(O)O)C(OP(=O)(O)O)C1O [D-L-S/A-PtdIns(3,4,5)P3, (2-arachidonyl, 3-stearoyl) sn-phosphatidyl D-myoinositol(3,4,5)-trisphosphate]
- PKB kinase phosphorylation/activation of PKB in the presence of the lipid (PKB kinases A-D): equally effectively activated

Molecule: phosphatidylinositol-3,4-bisphosphate [PtdIns(3,4)P2]
- PKB kinase phosphorylation/activation of PKB in the presence of the lipid (PKB kinases A-D): phosphorylate and activate
- effect of the lipid on phosphorylation of 30-mer PKB Thr308 peptide (PKB kinases [3]): dramatically inhibited

Molecule: phosphatidylinositol4,5-bisphosphate [PtdIns(4,5)P2]
- PKB kinase phosphorylation/activation of PKB in the presence of the lipid (PKB kinases A-D): inactive against PKB

B1: (EE)-II, N-terminally EE-tagged 55 kd PKB kinase (complete ORF of FIG. 3) expressed in cos-7 cells (protein)
chain: MARTTSQLYDAVPIQSSVVLCSCPSPSMVRSQTESSTPPGIPGGSRQGPAMDGTAAEPRPGAGSLQHAQPPPQPRKKRPEDFKFGKILGEGSFSTVVLARELATSREYAIKILEKRHIIKENKVPYVTRERDVMSRLDHPFFVKLYFTFQDDEKLYFGLSYAKNGELLKYIRKIGSFDETCTRFYTAEIVSALEYLHGKGIIHRDLKPENILLNEDMHIQITDFGTAKVLSPESKQARANSFVGTAQYVSPELLTEKSACKSSDLWALGCIIYQLVAGLPPFRAGNEYLIFQKIIKLEYDFPEKFFPKARDLVEKLLVLDATKRLGCEEMEGYGPLKAHPFFESVTWENLHQQTPPKLTAYLPAMSEDDEDCYGNYDNLLSQFGCMQVSSSSSSHSLSASDTGLPQRSGSNIEQYIHDLDSNSFELDLQFSEDEKRLLLEKQAGGNPWHQFVENNLILKMGPVDKRKGLFARRRQLLLTEGPHLYYVDPVNKVLKGEIPWSQELRPEAKNFKTFFVHTPNRTYYLMDPSGNAHKWCRKIQEVWRQRYQSHPDAAVQ
- PKB kinase activity ([32P] in PKB, autoradiogram) [4]: The protein with the intact protein kinase domain phosphorylated PKB in a PtdIns(3,4,5)P3-sensitive manner
